The assay deals with tyrosinase from mushroom. Briefly: Inhibition of mushroom tyrosinase (tyrosine substrate, absorbance at 475 nm after 24 hours). Type of assay: biochemical. On the procedure:
A buffer solution A containing 50 mM sodium acetate was prepared to yield a 6.8 pH. A tryosine solution was prepared by adding 15 mg of tyrosine to 100 ml of buffer solution A. A tyrosinase solution was prepared by adding 11.5 mg tyrosinase from mushroom (Serva Art. 37618, 72 μ/mg) in 1.2 ml. of buffer solution A. A test tube was charged with 2.7 ml of buffer solution A and 0.4 ml. water to define a blank. Similarly, another test tube was charged with 2.7 ml. of the tyrosine solution, 0.3 ml of water, and 0.1 ml of the tyrosinase solution to define a reference. The samples were stored for 24 hours at a temperature between 23° C. and 25° C. The absorbency of the reference was measured at 475 nm with a spectrophotometer and the absorbancy was set to zero. […] A test tube was charged with 2.7 ml of the tyrosine solution, 0.1 ml. of the tyrosinase solution and 1% mercaptodextran having a molecular weight of about 10,000 from Pharmacia Biotech. The sample was stored for 24 hours at a temperature between 23° C. and 25° C. The absorbancy of was measured at 24 hours. The percent inhibition of the tyrosinase of was calculated as follows: [formula]

[1] abbreviates: Example 1 / Table 1, whitener 1.0 wt %, 24 hours at 23-25° C., pH 6.8.

Each structure is given as a SMILES string.

Turning to `O=c1oc2cc(O)ccc2s1` [Tioxolone], the “Percent inhibition (24 hours)” value under setting [1] is reported as 0.0%.

Consider `O=c1cc(CO)occ1O` [Kojic Acid], for which the “Percent inhibition (24 hours)” value under setting [1] is listed as 87.8% and the “Percent inhibition (24 hours)” value (Example 2 / Table 2, whitening agent 1.0 wt %, 24 hours) stood at 90.9%.

For the origin of these results see patent US6077503A, “Skin whitener composition containing mercaptodextran” (Amway Corporation, priority 1997, dated 2000).
